Test system: patients with fasting triglyceride levels >200 mg/dl and <500 mg/dl despite statin therapy
Assay: 12-week placebo-controlled study of >96% E-EPA: fasting triglycerides (TG), incl. TG goal
Type: in vivo, human
Conditions: for Median reduction in triglycerides compared to baseline / TG Median % chg from BL / TG, Diff from pbo (Hodges-Lehmann median difference) / TG, EOT (Week 12 endpoint) median / TG Diff from pbo (median % chg, Hodges-Lehmann) / TG EOT Median / Fasting Triglycerides, Week 12 EP Median (IQR): MITT; for Median reduction in triglycerides compared to baseline / Percentage Achieving TG Goal (less than 150 mg/dL): Week 12; for Fasting Triglycerides, Percent change from Baseline, Median (IQR) / Fasting Triglycerides, Difference from placebo, Estimated median: Week 12, MITT; for Fasting Triglycerides, Difference from placebo, Estimated median: difference in percent change
Method: A multi-center, placebo-controlled, randomized, double-blind, 12-week study was performed to evaluate the efficacy and safety of >96% E-EPA in patients with fasting triglyceride levels >200 mg/dl and <500 mg/dl despite statin therapy (the mean of two qualifying entry values needed to be >185 mg/dl and at least one of the values needed to be >200 mg/dl). The primary objective of the study was to determine the efficacy of >96% E-EPA 2 g daily and 4 g daily, compared to placebo, in lowering fasting TG levels in patients with high risk for cardiovascular disease and with fasting TG levels 200 mg/dl and <500 mg/dl, despite treatment to LDL-C goal on statin therapy. The population for this study was men and women >18 years of age with a body mass index ≤45 kg/m^2 with fasting TG levels greater than or equal to 200 mg/dl and less than 500 mg/dl and on a stable does of statin therapy (with or without ezetimibe). The statin was atorvostatin, rosuvastatin or simvastatin. The dose of statin must have been stable for ≥4 weeks prior to the LDL-C/TG baseline qualifying measurement for randomization. The statin dose was optimized such that the patients are at their LDL-C goal at the LDL-C/TG baseline qualifying measurements. The same statin at the same dose was continued until the study ended. Approximately 702 patients were randomized at approximately 80 centers in the U.S. The study was a 18- to 20-week, Phase 3, multi-center study consisting of 2 study periods: (1) A 6- to 8-week screening period that included a diet and lifestyle stabilization, a non-statin lipid-altering treatment washout, and an LDL-C and TG qualifying period and (2) A 12-week, double-blind, randomized, placebo-controlled treatment period. After confirmation of qualifying fasting LDL-C and TG values, eligible patients entered a 12-week, randomized, double-blind treatment period. At Visit 4 (Week 0), patients were randomly assigned to 1 of the following treatment groups: • >96% E-EPA 2 g daily, • >96% E-EPA 4 g daily, or • Placebo. During the double-blind treatment period, patients were to take 2 capsules (>96% E-EPA or matching placebo) in the morning and 2 capsules in the evening for a total of 4 capsules per day. • Patients in the >96% E-EPA 2 g/day treatment group received 1>96% E-EPA 1 g capsule and 1 matching placebo capsule in the morning and in the evening. • Patients in the >96% E-EPA 4 g/day treatment group received 2>96% E-EPA 1 g capsules in the morning and evening. The primary efficacy variable for the double-blind treatment period was percent change in TG from baseline to Week 12 endpoint. The secondary efficacy variables for the double-blind treatment period included the following: • Percent changes in total cholesterol (TC), high-density lipoprotein cholesterol (HDL-C), LDL-C, calculated non-HDL-C, and very low-density lipoprotein cholesterol (VLDL-C) from baseline to Week 12 endpoint; • Percent change in very low-density lipoprotein TG from baseline to Week 12; • Percent changes in apolipoprotein A-I (Apo A-1), apolipoprotein B (Apo B), and Apo A-1/Apo B ratio from baseline to Week 12; • Percent changes in lipoprotein(a) from baseline to Week 12; • Percent changes in LDL particle number and size, measured by nuclear magnetic resonance, from baseline to Week 12; • Percent change in remnant-like particle cholesterol from baseline to Week 12; • Percent change in oxidized LDL from baseline to Week 12; • Changes in FPG and HbA1c from baseline to Week 12; • Change in insulin resistance, as assessed by the homeostasis model index insulin resistance, from baseline to Week 12; • Percent change in lipoprotein associated phospholipase A2 (Lp-PLA2) from baseline to Week 12; • Change in intracellular adhesion molecule-1 from baseline to Week 12; • Change in interleukin-2 from baseline to Week 12; • Change in plasminogen activator inhibitor-1 from baseline to Week 12. […]

[1] = AMR 101 2 g + statin, Atorva subgroup
[2] = AMR 101 2 g + statin, Rosuva subgroup
[3] = AMR 101 2 g + statin, Simva subgroup
[4] = AMR 101 2 g + statin, Statin Potency High
[5] = AMR 101 2 g + statin, Statin Potency Low
[6] = AMR 101 2 g + statin, Statin Potency Medium
[7] = AMR 101 2 g + statin, Diabetes No, Week 12 endpoint
[8] = AMR 101 2 g + statin, Diabetes Yes, Week 12 endpoint
[9] = AMR 101 2 g + statin, Non-statin Washout No, Week 12 endpoint
[10] = AMR 101 2 g + statin, Non-statin Washout Yes, Week 12 endpoint
[11] = AMR 101 2 g + statin, baseline TG tertile Highest (≥289.5 mg/dL), Week 12 endpoint
[12] = AMR 101 2 g + statin, baseline TG tertile Lowest (<230.5 mg/dL), Week 12 endpoint
[13] = AMR 101 2 g + statin, baseline TG tertile Middle (230.5 to <289.5 mg/dL), Week 12 endpoint
[14] = AMR 101 4 g + statin, Atorva subgroup
[15] = AMR 101 4 g + statin, Rosuva subgroup
[16] = AMR 101 4 g + statin, Simva subgroup
[17] = AMR 101 4 g + statin, Statin Potency High
[18] = AMR 101 4 g + statin, Statin Potency Low
[19] = AMR 101 4 g + statin, Statin Potency Medium
[20] = AMR 101 4 g + statin, Diabetes No, Week 12 endpoint
[21] = AMR 101 4 g + statin, Diabetes Yes, Week 12 endpoint
[22] = AMR 101 4 g + statin, Non-statin Washout No, Week 12 endpoint
[23] = AMR 101 4 g + statin, Non-statin Washout Yes, Week 12 endpoint
[24] = AMR 101 4 g + statin, baseline TG tertile Highest (≥289.5 mg/dL), Week 12 endpoint
[25] = AMR 101 4 g + statin, baseline TG tertile Lowest (<230.5 mg/dL), Week 12 endpoint
[26] = AMR 101 4 g + statin, baseline TG tertile Middle (230.5 to <289.5 mg/dL), Week 12 endpoint
[27] = IPE 4 g/day (n = 216), 12 weeks, patients with lipoprotein data

SMILES: CC/C=C\C/C=C\C/C=C\C/C=C\C/C=C\CCCC(=O)OCC [AMR101, ethyl eicosapentaenoate]
- Median reduction in triglycerides compared to baseline (2 g/day): 2.6%
- Percentage Achieving TG Goal (less than 150 mg/dL) (2 g/day): 3.8%
- Subjects who Achieved TG Goal (less than 150 mg/dL), number (2 g/day, Week 12, total n 234): 9
- Median reduction in triglycerides compared to baseline (4 g/day): 17.5%
- Percentage Achieving TG Goal (less than 150 mg/dL) (4 g/day): 7.1%
- Subjects who Achieved TG Goal (less than 150 mg/dL), number (4 g/day, Week 12, total n 226): 16
- TG Median % chg from BL [1]: −0.5%
- TG, Diff from pbo (Hodges-Lehmann median difference) [1]: −2.4
- TG, EOT (Week 12 endpoint) median [1]: 245.0
- TG Median % chg from BL [2]: −5.8%
- TG, Diff from pbo (Hodges-Lehmann median difference) [2]: −5.7
- TG, EOT (Week 12 endpoint) median [2]: 252.5
- TG Median % chg from BL [3]: −8.8%
- TG, Diff from pbo (Hodges-Lehmann median difference) [3]: −14.3
- TG, EOT (Week 12 endpoint) median [3]: 241.3
- TG Median % chg from BL [4]: −5.8%
- TG, Diff from pbo (Hodges-Lehmann median difference) [4]: −11.7
- TG, EOT (Week 12 endpoint) median [4]: 239.5
- TG Median % chg from BL [5]: −18.8%
- TG, Diff from pbo (Hodges-Lehmann median difference) [5]: −13.8
- TG, EOT (Week 12 endpoint) median [5]: 208.5
- TG Median % chg from BL [6]: −5.3%
- TG, Diff from pbo (Hodges-Lehmann median difference) [6]: −8.7
- TG, EOT (Week 12 endpoint) median [6]: 248.0
- TG Diff from pbo (median % chg, Hodges-Lehmann) [7]: −10.8%
- TG EOT Median [7]: 245.0 mg/dL
- TG Median % chg from BL [7]: −12.1%
- TG Diff from pbo (median % chg, Hodges-Lehmann) [8]: −9.8%
- TG EOT Median [8]: 244.0 mg/dL
- TG Median % chg from BL [8]: −1.5%
- TG Diff from pbo (median % chg, Hodges-Lehmann) [9]: −10.7%
- TG EOT Median [9]: 229.0 mg/dL
- TG Median % chg from BL [9]: −7.9%
- TG Diff from pbo (median % chg, Hodges-Lehmann) [10]: −9.5%
- TG EOT Median [10]: 249.5 mg/dL
- TG Median % chg from BL [10]: −4.2%
- TG Diff from pbo (median % chg, Hodges-Lehmann) [11]: −16.9%
- TG EOT Median [11]: 320.3 mg/dL
- TG Median % chg from BL [11]: −8.7%
- TG Diff from pbo (median % chg, Hodges-Lehmann) [12]: −4.1%
- TG EOT Median [12]: 207.8 mg/dL
- TG Median % chg from BL [12]: 0.7%
- TG Diff from pbo (median % chg, Hodges-Lehmann) [13]: −9.9%
- TG EOT Median [13]: 228.3 mg/dL
- TG Median % chg from BL [13]: −13.0%
- Fasting Triglycerides, Week 12 EP Median (IQR) (AMR101 2 g/d + statin, n 234): 244.3 (117.0)
- Fasting Triglycerides, Percent change from Baseline, Median (IQR) (AMR101 2g/d + statin): −5.6 (34.5) %
- Fasting Triglycerides, Difference from placebo, Estimated median (AMR101 2g/d + statin): −10.1
- TG Median % chg from BL [14]: −23.9%
- TG, Diff from pbo (Hodges-Lehmann median difference) [14]: −28.4
- TG, EOT (Week 12 endpoint) median [14]: 216.0
- TG Median % chg from BL [15]: −20.5%
- TG, Diff from pbo (Hodges-Lehmann median difference) [15]: −23.4
- TG, EOT (Week 12 endpoint) median [15]: 204.0
- TG Median % chg from BL [16]: −14.7%
- TG, Diff from pbo (Hodges-Lehmann median difference) [16]: −18.8
- TG, EOT (Week 12 endpoint) median [16]: 228.0
- TG Median % chg from BL [17]: −20.2%
- TG, Diff from pbo (Hodges-Lehmann median difference) [17]: −26.0
- TG, EOT (Week 12 endpoint) median [17]: 214.5
- TG Median % chg from BL [18]: 0.5%
- TG, Diff from pbo (Hodges-Lehmann median difference) [18]: −13.1
- TG, EOT (Week 12 endpoint) median [18]: 256.8
- TG Median % chg from BL [19]: −15.8%
- TG, Diff from pbo (Hodges-Lehmann median difference) [19]: −20.1
- TG, EOT (Week 12 endpoint) median [19]: 221.0
- TG Diff from pbo (median % chg, Hodges-Lehmann) [20]: −16.8%
- TG EOT Median [20]: 234.5 mg/dL
- TG Median % chg from BL [20]: −15.0%
- TG Diff from pbo (median % chg, Hodges-Lehmann) [21]: −23.2%
- TG EOT Median [21]: 216.5 mg/dL
- TG Median % chg from BL [21]: −18.7%
- TG Diff from pbo (median % chg, Hodges-Lehmann) [22]: −20.8%
- TG EOT Median [22]: 220.0 mg/dL
- TG Median % chg from BL [22]: −16.7%
- TG Diff from pbo (median % chg, Hodges-Lehmann) [23]: −22.4%
- TG EOT Median [23]: 220.8 mg/dL
- TG Median % chg from BL [23]: −17.7%
- TG Diff from pbo (median % chg, Hodges-Lehmann) [24]: −31.1%
- TG EOT Median [24]: 260.0 mg/dL
- TG Median % chg from BL [24]: −21.8%
- TG Diff from pbo (median % chg, Hodges-Lehmann) [25]: −14.4%
- TG EOT Median [25]: 183.5 mg/dL
- TG Median % chg from BL [25]: −10.9%
- TG Diff from pbo (median % chg, Hodges-Lehmann) [26]: −17.9%
- TG EOT Median [26]: 205.0 mg/dL
- TG Median % chg from BL [26]: −19.3%
- Fasting Triglycerides, Week 12 EP Median (IQR) (AMR101 4 g/d + statin, n 226): 220.8 (92.0)
- Fasting Triglycerides, Percent change from Baseline, Median (IQR) (AMR101 4g/d + statin): −17.5 (31.0) %
- Fasting Triglycerides, Difference from placebo, Estimated median (AMR101 4g/d + statin): −21.5
- TG, Change From Baseline, % (median) [27]: −17.5%
- TG, End of Treatment (median) [27]: 219.3 mg/dL
- TG, Median Change From Baseline IPE 4 g/day vs Placebo, % (IPE 4 g/day vs placebo, 12 weeks, Hodges-Lehmann median): −21.1%

Reference: patent US11285127B2, “Compositions and methods for lowering triglycerides without raising LDL-C levels in a subject on concomitant statin therapy” (Amarin Pharmaceuticals Ireland Limited, priority 2013, dated 2022)
